Measured values from patent US5736556A, “Tropane-2-aldoxime derivatives as nevro transmitter reuptake inhibitors” (NeuroSearch A/S, priority 1994, dated 1998).
Structures can show the parent of a compound that is named as a salt. Where two headings read alike, the source gives them in different places.

Key:
[1] = tested on: immobility time of mice suspended by the tail; experiment: Tail Suspension; assay type: in vivo, mice (female NMRI); conditions: Mus musculus, 0.5 h, oral, 30 min before test, dose reducing the immobility to 100 sec
Method: A decrease in the immobility time by mice suspended in their tail is seen after systemic administration of central stimulants and by antidepressants (Steru, L., Chermat, R., Thierry, B. & Simon, P. (1985) The tail suspension test: A new method for screening antidepressants in mice. Psychopharmacology 85:367-370.).
Female NMRI mice (20-25 g) habituated to the room (12 hours light/dark) for at least 16 hours and housed 25 per cage are used. The mice are suspended by the tail with adhesive tape to a rod 30 cm above the lab. bench 30 min after an oral administation of vehicle or drug. For the next 6 min the accumulated duration of immobility defined as no movements by the body or extremities (however head movements are not defined as movements) are noted, Six mice per dose are used.
Saline or vehicle treated mice have immobility time scores between 160-180 sec in average. An ED50 -value is calculated by graphical interpolation from at least 3 doses as the dose reducing the immobility to 100 sec.

dopamine transporter [2] = biological target: T1, dopamine transporter (Rattus norvegicus, UniProt P23977); experiment: In vitro inhibition of ^3 H-WIN 35428 binding (corpus striatum); parameters: species or system rat (male Wistar)
T1 construct: Corpus striatum from male Wistar rats (150-200 g) is homogenized; from tissue; host or cells: corpus striatum of male Wistar rats
Description: The compounds of the present invention have been tested for their ability to bind to the dopamine transporter in the following tests for in vitro and in vivo inhibition of ^3 H-WIN 35428.
In vitro inhibition of ^3 H-WIN 35428 binding
Dopamine transporters/uptake sites on nerve terminals presumably function to terminate neuronal signaling by removing dopamine from the synaptic cleft. The activity or presence of the dopamine transporter integral protein can be measured in vitro with synaptosomal uptake of ^3 H-dopamine or membrane binding assays with ^3 H-ligands known to bind to the transporter.
Numerous ligands of several structural types have been reported to bind at the dopamine uptake site, but it remains questionable whether their binding sites are identical to that of cocaine.
Tissue preparation: Preparations are performed at 0°-4° C. unless otherwise indicated. Corpus striatum from male Wistar rats (150-200 g) is homogenized for 5-10 sec in 10 ml NaH2 PO4 (50 mM, pH 7.4) using an Ultra-Turrax homogenizer. The suspension is centrifuged at 27,000×g for 15 min. The supernatant is discarded and the pellet is resuspended in 50 mM NaH2 PO4, pH 7.4 (1000 ml per g of original tissue) and used for binding assays.
Assay: Aliquots of 0.5 ml tissue are added to […] of ^3 H-WIN 35428 (1 nM, final concentration), mixed and incubated for 60 min at 2° C. Non-specific binding is determined using cocaine ([…], final concentration). After incubation the samples are added 5 ml of ice-cold buffer and poured directly onto Whatman GF/C glass fibre filters under suction and immediately washed with 5 ml ice-cold buffer. The amount of radioactivity on the filters is determined by conventional liquid scintillation counting. Specific binding is total binding minus non-specific binding.
25-75% inhibition of specific binding must be obtained, before calculation of an IC50. The test value is given as IC50 (the concentration (μM) of the test substance which inhibits the specific binding of ^3 H-WIN 35428 by 50%).

dopamine transporter [3] = biological target: T2, dopamine transporter (Mus musculus, UniProt Q61327); experiment: In vivo inhibition of ^3 H-WIN 35428 binding (striatum); parameters: from tissue; host or cells: striatum of living female NMRI mice; species or system mice (female NMRI); conditions: ip, mice, inhibition of specific ^3 H-WIN 35428 binding in striatum
Method: All test substances used are solutions or suspensions prepared in 10% TWEEN 80. Groups of three female NMRI mice (25 g) are injected i.p. with the test substance. […] Tissues are weighed and dissolved for 36 h with 1 ml 2% sodium-laurylsulfat. The solubilized tissue is then added 2 ml of scintillation cocktail, and the amount of radioactivity per mg of tissue is counted by conventional liquid scintillation counting. Groups of untreated mice serves as controls.
The ED50 value is determined from dose response curves.
ED50 =(administered dose, mg/kg)×1/(C0 /Cx -1), where C0 is specific binding in controls and Cx is the specific binding in mice treated with test substance.

dopamine transporter [4] = biological target: T2, dopamine transporter; conditions: cited from earlier work
[5] = rat corpus striatum, ^3 H-WIN 35428 1 nM, 60 min at 2° C., read-out: in vitro IC50

T2 sequence (Q61327 whole entry): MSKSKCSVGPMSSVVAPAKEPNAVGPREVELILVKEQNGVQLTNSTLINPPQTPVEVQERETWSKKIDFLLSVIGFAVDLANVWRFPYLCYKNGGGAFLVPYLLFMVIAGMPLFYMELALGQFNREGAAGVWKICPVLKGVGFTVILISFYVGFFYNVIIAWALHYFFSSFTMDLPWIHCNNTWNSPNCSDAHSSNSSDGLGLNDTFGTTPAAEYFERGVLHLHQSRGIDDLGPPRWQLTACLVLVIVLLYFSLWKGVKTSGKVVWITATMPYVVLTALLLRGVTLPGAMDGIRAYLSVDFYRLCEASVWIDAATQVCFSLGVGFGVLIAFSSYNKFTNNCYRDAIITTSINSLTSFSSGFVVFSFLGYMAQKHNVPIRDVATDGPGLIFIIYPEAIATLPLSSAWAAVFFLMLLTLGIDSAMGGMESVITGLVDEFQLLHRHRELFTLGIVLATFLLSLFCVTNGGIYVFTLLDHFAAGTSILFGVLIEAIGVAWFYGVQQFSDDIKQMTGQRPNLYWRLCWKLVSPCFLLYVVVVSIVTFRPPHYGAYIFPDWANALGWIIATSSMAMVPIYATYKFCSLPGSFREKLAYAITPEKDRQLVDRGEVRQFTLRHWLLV
T1 sequence (P23977 whole entry): as the sequence (Q61327 whole entry) above, with P21S, V57A, S194A, R600H, V619L counted along it

Structure (SMILES)	ED50 [1] [mg/kg]	IC50 (dopamine transporter [2]; [5]) [nM]	ED50 (dopamine transporter [3]) [mg/kg]	further results
CC(C)CON=C[C@@H]1[C@@H](c2ccc(Cl)c(Cl)c2)C[C@@H]2CC[C@H]1N2C [(1R,2R,3S)-3-(3,4-dichlorophenyl)-tropane-2-O-(2-methylpropyl)-aldoxime]	0.8	–	–	–
CON=C[C@@H]1[C@@H](c2ccc(C)cc2)C[C@@H]2CC[C@H]1N2C [(1R,2R,3S)-3-(4-methylphenyl)tropane-2-O-methyl-aldoxime hydrochloride]	–	42	–	–
CN1[C@H]2CC[C@@H]1[C@H](C=NO)[C@@H](c1ccc(Cl)cc1)C2 [(1R,2R,3S)-3-(4-chlorophenyl)tropane-2-aldoxime]	0.19	–	1.05	IC50 (dopamine transporter [2]): 13 nM
COC(=O)CON=C[C@@H]1[C@@H](c2ccc(Cl)c(Cl)c2)C[C@@H]2CC[C@H]1N2C [(1R,2R,3S)-3-(3,4-dichlorophenyl)tropane-2-O-methoxycarbonylmethyl-aldoxime]	0.25	–	–	–
C=CCON=C[C@@H]1[C@@H](c2ccc(Cl)c(Cl)c2)C[C@@H]2CC[C@H]1N2C [(1R,2R,3S)-3-(3,4-Dichlorophenyl)tropane-2-O-(2-propenyl)-aldoxime hydrochloride]	–	22	–	–
CN1[C@H]2CC[C@@H]1[C@H](C=NOCC1CC1)[C@@H](c1ccc(Cl)c(Cl)c1)C2 [(1R,2R,3S)-3-(3,4-dichlorophenyl)-tropane-2-O-cyclopropylmethyl-aldoxime]	0.7	–	–	–
CON=C[C@@H]1[C@@H](c2ccc(Cl)cc2)C[C@@H]2CC[C@H]1N2C [(1R,2R,3S)-3-(4-chlorophenyl)tropane-2-O-methylaldoxime hydrochloride]	0.43	48	1	–
Fc1ccc(C(OCCN2CCN(CCCc3ccccc3)CC2)c2ccc(F)cc2)cc1 [GBR 12909]	–	–	–	prevention of specific binding of ^3 H-WIN 35428 in vivo (dopamine transporter [4]): partly or completely prevented
C#CCON=C[C@@H]1[C@@H](c2ccc(Cl)c(Cl)c2)C[C@@H]2CC[C@H]1N2C [(1R,2R,3S)-3-(3,4-dichlorophenyl)-tropane-2-O-(2-propynyl)-aldoxime]	0.04	–	–	–
C=CCON=C[C@@H]1[C@@H](c2ccc(Cl)c(Cl)c2)C[C@@H]2CC[C@H]1N2C [(1R,2R,3S)-3-(3,4-dichlorophenyl)-tropane-2-O-(2-propenyl)-aldoxime]	0.23	–	–	–
CN1[C@H]2CC[C@@H]1[C@H](C=NOCc1ccccc1)[C@@H](c1ccc(Cl)c(Cl)c1)C2 [(1R,2R,3S)-3-(3,4-dichlorophenyl)-tropane-2-O-benzyl-aldoxime, HCl]	2	76	> 10	–
CCOC(=O)CON=C[C@@H]1[C@@H](c2ccc(Cl)c(Cl)c2)C[C@@H]2CC[C@H]1N2C [(1R,2R,3S)-3-(3,4-Dichlorophenyl)tropane-2-O-ethoxycarbonylmethyl-aldoxime,hydrochloride]	–	24	> 10	–
CON=C[C@H]1[C@@H](c2ccc(Cl)c(Cl)c2)C[C@@H]2CC[C@H]1N2C [(1R,2S,3S)-3-(3,4-dichlorophenyl)tropane-2-O-methyl-aldoxime]	0.4	1.8	0.37	–
CN1[C@H]2CC[C@@H]1[C@@H](C=NOCc1ccccc1)[C@@H](c1ccc(Cl)c(Cl)c1)C2 [(1R,2S,3S)-3-(3,4-dichlorophenyl)tropane-2-O-benzyl-aldoxime, hydrochloride]	0.94	–	–	–
C#CCON=C[C@@H]1[C@@H](c2ccc(Cl)c(Cl)c2)C[C@@H]2CC[C@H]1N2C [(1R,2R,3S)-3-(3,4-Dichlorophenyl)tropane-2-O-(2-propynyl)-aldoxime hydrochloride]	–	19	–	–
CN1[C@H]2CC[C@@H]1[C@H](C=NOCC1CC1)[C@@H](c1ccc(Cl)c(Cl)c1)C2 [(1R,2R,3S)-3-(3,4-Dichlorophenyl)tropane-2-O-cyclopropylmethyl-aldoxime hydrochloride]	–	20	–	–
CC(C)CON=C[C@@H]1[C@@H](c2ccc(Cl)c(Cl)c2)C[C@@H]2CC[C@H]1N2C [(1R,2R,3S)-3-(3,4-Dichlorophenyl)tropane-2-O-(2-methylpropyl)-aldoxime hydrochloride]	–	56	–	–
CN1[C@H]2CC[C@@H]1[C@@H](C=NO)[C@@H](c1ccc(Cl)c(Cl)c1)C2 [(1R,2S,3S)-3-(3,4-dichlorophenyl)tropane-2-aldoxime]	0.27	–	0.56	IC50 (dopamine transporter [2]): 2 nM
CN1[C@H]2CC[C@@H]1[C@H](C=NO)[C@@H](c1ccc(Cl)c(Cl)c1)C2 [(1R,2R,3S)-3-(3,4-Dichlorophenyl)tropane-2-aldoxime]	0.41	–	3.8	IC50 (dopamine transporter [2]): 3.4 nM
